Tested on: patients with asthma
Assay: bronchodilating response (FEF25-75) to albuterol in patients with asthma by 5′LC genotype
Type: in vivo, human
Details: for patients exhibiting a bronchodilating response (increase in FEF25-75 greater than 12%): 180 micrograms aerosolized, 30 minutes
Source text: For this study, 134 patients with asthma were enrolled to determine whether either of the polymorphisms at nucleic acid −47 in the β2AR gene alter the bronchodilating response to β-agonist. The percent (%) change in the forced expiratory flow between 25% and 75% of the forced vital capacity (FEF25-75) was used as a measure of responsiveness. Patients underwent pulmonary function testing to measure FEF25-75 and then received 2 puffs (total of 180 micrograms) of aerosolized albuterol by metered dose inhaler. Thirty minutes later the FEF25-75 measurement was repeated. Based on accepted national standards, an increase in FEF25-75 of greater than 12% was considered a response, while 12% or less was considered no response.

With CC(C)(C)NCC(O)c1ccc(O)c(CO)c1 (stereo not drawn) [albuterol] the “patients exhibiting a bronchodilating response (increase in FEF25-75 greater than 12%)” value (TT genotype at the 5′LC PS) was 28.8%, the “odds ratio for having no response” value (TT genotype versus TC or CC) was 2.47 and the “patients exhibiting a bronchodilating response (increase in FEF25-75 greater than 12%)” value (without TT genotype (TC or CC)) was 71.1%.
